In data set [1] the test system is (PLP) α-synuclein transgenic mice. The following applies: daily rating, whole experimental period.
Procedure: Behavioral tests were performed blindly to the treatment status according to the following procedures and described in Fernagut et al.: clinical scale, stride length, spontaneous locomotor activity.
The groups were evaluated daily during the whole experimental period with a general motor score according to a previously published rating scale.
A previously described rating scale (Fernagut et al., Subacute systemic 3-nitropropionic acid intoxication induces a distinct motor disorder in adult C57B1/6 mice: Behavioural and histopathological characterization, Neuroscience 2002; 114:1005-17) was used for evaluation of hindlimb clasping, general locomotor activity, hindlimb dystonia, truncal dystonia and postural challenge response (0, normal; 1 slightly disturbed, and 2 markedly disabled). […] A total daily score per animal for each session was determined as well as a total sum score per animal per group for the whole testing period.
The test system is the same in data set [2]. The following applies: MSA mice (3-NP +), N=10. The source says: A suitable model for MSA is described by Stefanova et al. (Am. J. Pathol. March 2005, 166(3):869-76; Trends Neurosci. 2005, 28(9):501-6). This model acts by inducing oxidative stress in transgenic mice with oligodendroglial α-synuclein expression. […] The selective neuronal cell death pattern typical of MSA is achieved by combining mitochondrial inhibition by 3-nitropropionic acid (3-NP).
A total of 36 (PLP) α-synuclein transgenic mice over 6 months of age were used.
Chronic intoxication with 3-NP was done according to a previously used paradigm pathiology (i.e. 4×10 mg/kg, 4×20 mg/kg, 4×40 mg/kg, 4×50 mg/kg intraperitoneal injections every 12th hour for a period of two weeks) to model MSA pathology.
The mice were further divided into groups as follows: Control group (saline tested, n=10), low dose rasagiline group (0.6 mg/kg; n=10) and high dose rasagiline group ([…]; n=10). Rasagiline was delivered subcutaneously every 24 hours starting 24 hours one week before the intoxication with 3-NP and lasting for an additional week, i.e., for a total period of 4 weeks.

Data set [3] concerns early Parkinson's disease patients. As to conditions: rasagiline-treated subjects; cited from earlier work.
For data set [4], the system named is (PLP) α-synuclein transgenic mice. The following applies: mouse, in vivo. From the text:
(§1) Sections underwent the following immunohistochemical stainings: tyrosinehydroxylase antibody (Sigma) used to visualize dopaminergic neurons in SNc, dopamine and cyclic adenosine 3′,5′-monophosphate-regulated phosphoprotein 32 (DARPP-32)(New York Hospital-Cornell Medical Centre) used to visualize medium sized spiny neurons in striatum and Purkinje cells in cerebellar cortex, Glial Fibrillary Acidic Protein (GFAP)(Roche Diagnostics GmBH) used to visualize astroglial reaction, CD11b (Serotec) used to visualize microglial reaction and Bcl-2, Bcl-X1 and Bax apoptic/anti-apoptotic markers. One full series was stained with cresyl violet.
(§2) The following antibodies were used in this study: monoclonal anti-DARPP-32 (1:2000), monoclonal anti-TH (Sigma, St. Louis, Mo., 1:500), monoclonal anti-GFAP (Roche, Vienna, Austria 1:100), monoclonal anti-CD11b (Serotec, Oxford, UK, 1:100), polyclonal anti-activated capase 3 (Transduction Laboratories, Lexington, Ky., 1:200), monoclonal anti-Bax (Santa Cruz Biotechnology, 1:100), monoclonal anti-Bc12 (Santa Cruz Biotechnology, 1:100), and monoclonal anti-BclX (Chemicon, Temecula, Calif., 1:100). Secondary antibodies were biotinylated horse anti-mouse IgG, goat anti-rat IgG, or goat anti-rabbit IgG (Vector, Burlingame, Calif.). Immunohistochemical reaction was developed with 3,3′-diaminobenzidine.

In data set [5] the target is MAO-B (Mus musculus, UniProt Q8BW75). The following applies: for MAO-B activity (mean dpm ± SD): MSA mice, brain homogenate, 14C-PEA 10 μM, end of experiment. As to the method:
(§3) Efficacy of Rasagiline treatment was determined by biochemical measurement of the inhibition of MAO-A and MAO-B activity in the different treatment groups. Two mice per group were sacrificed under deep thiopental anesthesia by cervical […]. Brains were immediately removed and snap-frozen in liquid nitrogen and further stored at −80° C. Tissue homogenates were preincubated with clorgyline or deprenyl in order to inhibit MAO-A or MAO-B respectively. Incubation was carried on with 14C-labeled PEA (10 μM) for MAO-B determination and 14C-HT (100 μM) for MAO-A determination. Reaction was stopped by acidification and labeled metabolites were extracted into toluene/ethyl acetate and counted by beta-counter.

Data set [6] concerns the target MAO-A (Mus musculus, UniProt Q64133). As to conditions: for MAO-A activity (mean dpm ± SD): MSA mice, brain homogenate, 14C-HT 100 μM, end of experiment. The method, then: as §3
Data set [7] has as its system (PLP) α-synuclein transgenic mice. As to conditions: fourth week (day 25). As to the method:
The pole test (Id.; and Matsuura et al., Pole test is a useful method for evaluating the mouse movement disorder caused by striatal dopamine depletion, Journal of Neuroscience Methods 1997; 73:45-8) was performed on day 17 and day 25 of the experiment. Each mouse was habituated to the test the day before. A wooden vertical pole with rough surface, 1 cm wide and 50 cm high was applied. The mouse was placed with the head up at the top of the pole and the time for turning downwards (Tturn) as well as the total time for climbing down the pole until the mouse reached the floor with the four paws (Ttotal) was taken in 5 trials. The best performance of all the five trials was kept for the statistical analysis (Fernagut et al., In vivo models of multiple system atrophy, Mov Disord. 2005; 20 Suppl 12:S57-S63). If a mouse was unable to perform the test, a default value of 120 s was taken into account.

Data set [8] has the same test system. The method, then:
The stride length of the hindlimbs of the mice was measured at baseline and before sacrificing them after a habituation to the test for 3 days before its performance. The limbs of each animal were wetted with a non-toxic food color and the mouse was let to run on a strip of paper (42 cm long, 4.5 cm wide) down a bright corridor towards a dark goal box. After four runs, the stride length of the forelimbs and the hindlimbs on each side was measured, excluding the beginning (7 cm) and the end (7 cm) of the run. The mean stride length for was determined.
Stride length test was performed on day 18-19 and day 27-28 after first 3-NP intoxication.

Data set [9] shares this test system. The following applies: any of the time points studied (day 16, day 26). As to the method: To test the locomotor activity of the mice we applied the Flex Field Activity System, (San Diego Instruments, San Diego, Calif.) which allows monitoring and real-time counting of horizontal and vertical locomotor activity by 544 photo-beam channels. Mice were placed in the center of the open field (40.5×40.5×36.5 cm) and tested for a 15 min period always at the same time of the day (5.00 p.m.). The tests were performed in a dark room that was completely isolated from external noises and light during the test period. The sum of counts in the horizontal and vertical plane at day 16 and on day 26 of the experiment was further analyzed.

Data set [10] shares this test system. The method, then:
Neuropathological examination of the brains was performed after transcardial perfusion of 4% paraformaldehyde (PFA) under deep thiopental anesthesia. Brains were quickly removed, postfixed in the same fixative for 1 hour at 4° C., and then kept in 25% sucrose solution until they sunk. The brains were slowly frozen in with 2-methylbutan and kept at −80° C. until processing. Serial sections throughout the whole brain were cut on a freezing microtome (Leica, Nussloch, Germany).
as §1, §2
All morphometric analyses were done blinded to the treatment of the animal's observer. Stereology was applied using a computer-assisted image analysis system (Nikon E-800 microscope, Nikon digital camera DXM 1200; Stereo Investigator Software, MicroBrightField Europe e.K., Magdeburg, Germany). […] Purkinje cells in the cerebellum and glial reaction throughout the entire brain are analyzed to the Paxinos and Franklin mouse brain atlas (1997, Academic Press, San Diego). Purkinje cells were counted in a region outlined to include only the Purkinje cell layer (German et al., Degeneration of neurons and glia in the Niemann-Pick C mouse is unrelated to the low-density lipoprotein receptor. Neuroscience, 2001; 105:999-1005).
The source holds these as a separate data set.

Setting [11] is: 2.5 mg/kg daily for 4 weeks, without reaching neuronal numbers of healthy controls.

Data on one compound can be found in patent publication US8809310B2, “Use of rasagiline for the treatment of multiple system atrophy” (priority 2006, dated 2014).

Read-outs that look alike come from different tables or passages of the source.

MAO-A, sequence (Q64133 whole entry): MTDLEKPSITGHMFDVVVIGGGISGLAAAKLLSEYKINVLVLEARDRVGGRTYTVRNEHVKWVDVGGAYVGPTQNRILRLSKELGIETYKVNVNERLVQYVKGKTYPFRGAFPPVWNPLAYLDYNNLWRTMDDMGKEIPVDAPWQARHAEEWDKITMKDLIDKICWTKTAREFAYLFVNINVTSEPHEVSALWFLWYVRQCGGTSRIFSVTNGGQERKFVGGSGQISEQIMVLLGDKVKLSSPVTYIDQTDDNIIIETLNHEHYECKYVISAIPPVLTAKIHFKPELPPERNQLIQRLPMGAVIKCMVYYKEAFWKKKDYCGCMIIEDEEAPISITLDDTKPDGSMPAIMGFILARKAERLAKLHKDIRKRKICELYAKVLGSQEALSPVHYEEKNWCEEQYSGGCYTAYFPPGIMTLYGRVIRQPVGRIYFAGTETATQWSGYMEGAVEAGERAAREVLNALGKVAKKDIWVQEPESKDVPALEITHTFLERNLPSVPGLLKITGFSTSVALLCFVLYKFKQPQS
MAO-B, sequence (Q8BW75 whole entry): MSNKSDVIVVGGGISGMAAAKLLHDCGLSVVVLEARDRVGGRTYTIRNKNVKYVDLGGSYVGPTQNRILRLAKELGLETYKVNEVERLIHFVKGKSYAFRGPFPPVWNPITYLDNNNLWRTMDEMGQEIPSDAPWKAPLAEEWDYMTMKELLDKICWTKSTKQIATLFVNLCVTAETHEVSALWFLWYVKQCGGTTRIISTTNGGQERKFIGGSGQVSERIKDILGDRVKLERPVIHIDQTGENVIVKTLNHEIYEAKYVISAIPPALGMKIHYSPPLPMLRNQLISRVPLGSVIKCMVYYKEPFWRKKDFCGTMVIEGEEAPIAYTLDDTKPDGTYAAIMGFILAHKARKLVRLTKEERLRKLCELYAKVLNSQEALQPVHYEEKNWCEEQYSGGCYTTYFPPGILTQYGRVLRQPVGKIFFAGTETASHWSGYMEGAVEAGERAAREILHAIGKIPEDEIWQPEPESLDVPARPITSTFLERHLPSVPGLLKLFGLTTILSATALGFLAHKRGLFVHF

Take `C#CCN[C@@H]1CCc2ccccc21` [Rasagiline, R(+)-N-propargyl-1-aminoindan]: in data set [1], the “general motor impairment (general motor score)” value is on record as “significant improvement”. Besides, the “Mortality N (%)” value in [2] (Rasagiline 0.8 mg/kg b.w.) was 2 (20) N (%). For the same compound, the “Mortality N (%)” value in [2] (Rasagiline 2.5 mg/kg b.w.) was 1 (10) N (%). In data set [3], the “most commonly reported adverse events” value is “pain, headache and dizziness”; the “side effects typical of other dopaminergic medications (hallucinations, somnolence, edema, nausea, vomiting, diarrhea)” value is reported as “infrequently reported”. Moreover, in data set [4], the “CD11b staining pattern (microglial activation), treated vs untreated mice” value is “No differences” and the “GFAP staining pattern (astroglial activation), treated vs untreated mice” value is recorded as “No differences”. Also, in data set [5] (Rasagiline 0.8 mg/kg), the “MAO-B activity (mean dpm ± SD)” value was 370.01 ± 321 dpm. Further, in data set [5] (Rasagiline 2.5 mg/kg), the “MAO-B activity (mean dpm ± SD)” value is listed as 80.94 ± 14 dpm. For the same compound, in data set [5] (both concentrations), the “inhibition of MAO activity (MAO-B)” value is recorded as “significant inhibition”. For the same compound, the “MAO-A activity (mean dpm ± SD)” value in [6] (Rasagiline 0.8 mg/kg) was 1463.10 ± 219 dpm. In data set [6] (Rasagiline 2.5 mg/kg), the “MAO-A activity (mean dpm ± SD)” value was determined as 724.06 ± 65 dpm. Besides, the “inhibition of MAO activity (MAO-A)” value in data set [6] (both concentrations) was “significant inhibition”. In [7], the “pole test T-total (prolonged movement time)” value is recorded as “significantly reduced” and the “pole test T-turn (prolonged movement time)” value is listed as “significantly reduced”. The stride length entry in data set [8] (day 18-19) is on record as “reversed shortened stride length”. Also, the stride length result in data set [8] (day 27-28) was “reversed stride length impairment”. In [9], the open field activity entry is on record as “observed neither upon open field activity” and the rearing behavior result is given as “nor on rearing behavior”. Also, in data set [10] (setting [11]), the “protection of Purkinje cells” value was “partial protection” and the “protection of neurons of the inferior olives” value is reported as “partial protection”. The “protection of pontine nuclei against 3-NP intoxication” value in data set [10] (mouse, in vivo) is recorded as “completely protected”. Besides, the “loss of striatal DARPP-32-immunoreactive medium spiny neurons” value in data set [10] (striatum, did not reach levels of non-intoxicated controls) is “partially prevented”. Further, in data set [10] (substantia nigra pars compacta), the “loss of TH-immunopositive neurons in SNc” value is reported as “completely protected”.
